Laboratory results: patent publication US9879049B2, “Glycopeptide antibiotic analogs effective against vancomycin-resistant bacterial strains” (The Scripps Research Institute, priority 2011, dated 2018)
Converted amounts (≈) assume the structure as drawn. Like-named read-outs stand apart in the source and are kept apart here.

Assays:
N,N′-Ac2-Lys-D-Ala-D-Ala = test: Titration binding assay (UV difference) with model D-Ala-D-Ala ligand; details: for ligand, Ka, 6, X = NH: model ligand 6 (D-Ala-D-Ala), 0.02 M sodium citrate buffer pH 5.1; for Ka(6/7): ratio of Ka for ligand 6 (D-Ala-D-Ala) to ligand 7 (D-Ala-D-Lac)
Experimental: (§1) The binding constants for compounds 6 and 8 for association with the model ligands N,N′-Ac2-Lys-D-Ala-D-Ala (2) and N,N′-Ac2-Lys-D-Ala-D-Lac (4) were determined according to literature protocol.^30 UV difference measurements were carried out on a CARY 3E UV-Vis spectrometer. UV scans were run with a baseline correction that consisted of 0.02 M sodium citrate buffer (pH=5.1) and covered the range from 200 to 345 nm. A solution of 6 or 8 (7.7×10^−5M in 0.02 M sodium citrate buffer) was placed into a quartz UV cuvette (0.1 cm path length) and the UV spectrum recorded versus a reference cell containing 0.02 M sodium citrate buffer. UV spectra were recorded after each addition of a solution of N,N′-Ac2-Lys-D-Ala-D-Ala (2) or N,N′-Ac2-Lys-D-Ala-D-Lac (4) in 0.02 M sodium citrate buffer to each cell from 0.1 to 60.0 equivalents. The absorbance value at the λmax was recorded and the running change in absorbance, ΔAx equiv (Ainitial−Ax equiv), measured. The number of ligand equivalents was plotted versus ΔA to afford the ligand binding titration curve. The break point of this curve is the saturation point of the system and its xy coordinates were determined by establishing the intersection of the linear fits of the pre- and post-saturation curves. ΔAsaturation was calculated and employed to determine the concentration of free ligand in solution at each titration point. ΔA was plotted versus ΔA/free ligand concentration to give a Scatchard plot from which the binding constants were determined.
(§2) Titration Binding Assays with Model D-Ala-D-Ala and D-Ala-D-Lac Ligands 6 and 7.
(§3) The binding constants for all compounds for association with the model ligands N,N′-Ac2-Lys-D-Ala-D-Ala (6) and N,N′-Ac2-Lys-D-Ala-D-Lac (7) were determined according to literature protocol. UV difference experiments were carried out on a CARY 3E UV-Vis spectrometer. UV scans were run with a baseline correction that consisted of 0.02 M sodium citrate buffer (pH=5.1) and covered a range from 200 to 345 nm. A solution of the vancomycin aglycon derivative (7.7×10^−5 M in 0.02 M sodium citrate buffer) was placed into a quartz UV cuvette (0.1 cm path length) and the UV spectrum recorded versus a reference cell containing 0.02 M sodium citrate buffer. UV spectra were recorded after each addition of a solution of N,N′-Ac2-Lys-D-Ala-D-Ala (6) or N,N′-Ac2-Lys-D-Ala-D-Lac (7) in 0.02 M sodium citrate buffer to each cell from 0.1 to 60.0 equivalents. The absorbance value at the λmax was recorded and the running change in absorbance, ΔAx equiv (Ainitial−Ax equiv), measured. The number of ligand equivalents was plotted versus ΔA to afford the ligand binding titration curve. The break point of this curve is the saturation point of the system and its xy coordinates were determined by establishing the intersection of the linear fits of the pre and postsaturation curves. ΔAsaturation was calculated and employed to determine the concentration of free ligand in solution at each titration point. ΔA was plotted versus ΔA/free ligand concentration to give a Scatchard plot from which the binding constants were determined.

N,N′-Ac2-Lys-D-Ala-D-Lac = test: Titration binding assay (UV difference) with model D-Ala-D-Lac ligand; details: for ligand, Ka, 7, X = O: model ligand 7 (D-Ala-D-Lac), 0.02 M sodium citrate buffer pH 5.1
Experimental: Titration Binding Assays with Model D-Ala-D-Ala and D-Ala-D-Lac Ligands 2 and 4.
as §1, §2, §3

[1] = system: E. faecalis (BM4166, VanA VRE); test: MIC by broth microdilution, VanA VRE; format: cell-based; details: for MIC: Enterococcus faecalis, read-out: VanA MIC (minimum inhibitory conc.)
Experimental: E. faecalis (BM4166) was propagated and MIC's were determined in duplicate by the broth microdilution method according to standard microbiological practice. See: Clinical and Laboratory Standards Institute. Methods for Dilution Antimicrobial Susceptibility Tests for Bacteria That Grow Aerobically; Approved Standard, 7th ed.; CLSI document M07-A8; Clinical and Laboratory Standards Institute: Wayne, Pa., 2009. Cudic, M.; Condie, B. A.; Weiner, D. J.; Lysenko, E. S.; Xiang, Z. Q.; Insug, O.; Bulet, P.; Otvos, L., Jr.; Peptides 2002, 23, 271.
(§4) S. Aureus (ATCC 25923) and E. Faecalis (BM4166) were propagated and MICs were determined in duplicate by the broth microdilution method according to standard microbiological practice. (Clinical and Laboratory Standards Institute. Methods for Dilution Antimicrobial Susceptibility Tests for Bacteria That Grow Aerobically; Approved Standard, 7th ed.; CLSI document M07-A8; Clinical and Laboratory Standards Institute: Wayne, Pa., 2009.)

S. Aureus (ATCC 25923) = test: MIC by broth microdilution, vancomycin-sensitive S. aureus; format: cell-based; details: Staphylococcus aureus, ATCC25923
Experimental: as §4

[2] = amidine group; cited from earlier work
[3] = system: sensitive bacterial strains; test: Activity against sensitive bacterial strains; format: cell-based; details: read-out: MIC against sensitive bacterial strains
[4] = system: D-Ala-D-Lac, substrate model 4 (X═O); details: cited from earlier work
[5] = system: substrate model 3 (X═CH2); details: substrate model 3 (X═CH2) versus model 2; cited from earlier work
[6] = system: Vancomycin-resistant bacteria (VanA and VanB); details: resistant bacteria with D-Ala-D-Lac precursor; cited from earlier work

For `CN[C@H](CC(C)C)C(=O)N[C@H]1C(=O)N[C@@H](CC(N)=O)C(=O)N[C@H]2C(=NC#N)NC3C(=O)N[C@H](C(=O)N[C@H](CO)c4cc(O)cc(O)c4-c4cc3ccc4O)[C@H](O)c3ccc(c(Cl)c3)Oc3cc2cc(c3O)Oc2ccc(cc2Cl)[C@H]1O` (single isomer, unassigned) [Compound 14], the “binding of D-Ala-D-Ala versus D-Ala-D-Lac” value (N,N′-Ac2-Lys-D-Ala-D-Ala; D-Ala-D-Ala bound more effectively than D-Ala-D-Lac) was ≥ 120 fold, the “affinity for D-Ala-D-Ala, fold less than parent amide 8 or amidine 10” value (N,N′-Ac2-Lys-D-Ala-D-Ala; relative to 8 or 10) was 20 fold and the “binding of D-Ala-D-Lac” value (N,N′-Ac2-Lys-D-Ala-D-Lac; result in words) was “failed to bind”. For the same compound, the MIC ([1]; E. faecalis BM4166, VanA VRE) was > 40 µg/mL, the MIC (S. Aureus (ATCC 25923)) was 10 µg/mL (≈ 8.67 µM) and the pKa [2] was 1.
With `CN[C@H](CC(C)C)C(=O)N[C@H]1C(=O)N[C@@H](CC(N)=O)C(=O)N[C@H]2C(=O)N[C@H]3C(=O)N[C@H](C(=O)N[C@H](C(=O)O)c4cc(O)cc(O)c4-c4cc3ccc4O)[C@H](O)c3ccc(c(Cl)c3)Oc3cc2cc(c3O)Oc2ccc(cc2Cl)[C@H]1O` [Compound 2, vancomycin aglycone, reference compound] the “ligand, Ka, 6, X = NH” value (N,N′-Ac2-Lys-D-Ala-D-Ala) was 170000 M⁻¹, the “Ka(6/7)” value (N,N′-Ac2-Lys-D-Ala-D-Ala) was 1400 and the “ligand, Ka, 7, X = O” value (N,N′-Ac2-Lys-D-Ala-D-Lac) was 120 M⁻¹. It also gave an MIC ([1]; VRE) of 640 µg/mL (≈ 559 µM) and an MIC [3] of 0.3 to 2 µg/mL (≈ 0.262 to 1.75 µM).
With `CN[C@H](CC(C)C)C(=O)N[C@H]1C(=O)N[C@@H](CC(N)=O)C(=O)N[C@H]2C(=N)NC3C(=O)N[C@H](C(=O)N[C@H](C(=O)O)c4cc(O)cc(O)c4-c4cc3ccc4O)[C@H](O)c3ccc(c(Cl)c3)Oc3cc2cc(c3O)Oc2ccc(cc2Cl)[C@H]1O` [Compound 4, [Ψ[C(═NH)NH]Tpg^4]Vancomycin Aglycon] the “ligand, Ka, 6, X = NH” value (N,N′-Ac2-Lys-D-Ala-D-Ala) was 73000 M⁻¹, the “Ka(6/7)” value (N,N′-Ac2-Lys-D-Ala-D-Ala) was 1.05 and the “ligand, Ka, 7, X = O” value (N,N′-Ac2-Lys-D-Ala-D-Lac) was 69000 M⁻¹. For the same compound, the MIC ([1]; VRE) was 0.31 µg/mL (≈ 0.271 µM) and the pKa [2] was 12.5.
In the case of `CN[C@H](CC(C)C)C(=O)N[C@H]1C(=O)N[C@@H](CC(N)=O)C(=O)N[C@H]2C(=S)NC3C(=O)N[C@H](C(=O)N[C@H](C(=O)O)c4cc(O)cc(O)c4-c4cc3ccc4O)[C@H](O)c3ccc(c(Cl)c3)Oc3cc2cc(c3O)Oc2ccc(cc2Cl)[C@H]1O` [Compound 5, [Ψ[C(═S)NH]Tpg^4]Vancomycin Aglycon], the “ligand, Ka, 6, X = NH” value (N,N′-Ac2-Lys-D-Ala-D-Ala) is reported as 170 M⁻¹, the “binding to D-Ala-D-Ala” value (N,N′-Ac2-Lys-D-Ala-D-Ala; result in words, FIG. 3) is reported as “completely disrupt binding” and the “ligand, Ka, 7, X = O” value (N,N′-Ac2-Lys-D-Ala-D-Lac) is reported as 11 M⁻¹. The “binding to D-Ala-D-Lac” value (N,N′-Ac2-Lys-D-Ala-D-Lac; result in words, FIG. 3) was “completely disrupt binding”, the MIC ([1]; VRE) was > 640 µg/mL and the antimicrobial activity ([1]; result in words, FIG. 3) was “lacked any antimicrobial activity”.
In the case of `CN=C1NC2C(=O)N[C@H](C(=O)N[C@H](CO)c3cc(O)cc(O)c3-c3cc2ccc3O)[C@H](O)c2ccc(c(Cl)c2)Oc2cc3cc(c2O)Oc2ccc(cc2Cl)[C@@H](O)[C@@H](NC(=O)[C@@H](CC(C)C)NC)C(=O)N[C@@H](CC(N)=O)C(=O)N[C@@H]13` [Compound 11], the “relative affinity for ligands 6 and 7” value (N,N′-Ac2-Lys-D-Ala-D-Ala; D-Ala-D-Ala versus D-Ala-D-Lac, result in words) is reported as “near equal affinities”, the “times less effective than parent amidine 10 at binding D-Ala-D-Ala ligand 6” value (N,N′-Ac2-Lys-D-Ala-D-Ala; relative to 10) is reported as 30 to 50 times and the “times less effective than parent amidine 10 at binding D-Ala-D-Lac ligand 7” value (N,N′-Ac2-Lys-D-Ala-D-Lac; relative to 10) is reported as 30 to 50 times. The MIC ([1]; E. faecalis BM4166, VanA VRE) was 20 µg/mL (≈ 17.5 µM) and the “fold less potent than 10 against VanA VRE” value ([1]; relative to parent amidine 10) was 60 fold.
In the case of `CN[C@H](CC(C)C)C(=O)N[C@H]1C(=O)N[C@@H](CC(N)=O)C(=O)N[C@H]2C(=O)N[C@H]3C(=O)N[C@H](C(=O)N[C@H](C(=O)O)c4cc(O)cc(O)c4-c4cc3ccc4O)[C@H](O)c3ccc(c(Cl)c3)Oc3cc2cc(c3O[C@@H]2O[C@H](CO)[C@@H](O)[C@H](O)[C@H]2O[C@H]2C[C@](C)(N)[C@H](O)[C@H](C)O2)Oc2ccc(cc2Cl)[C@H]1O` [vancomycin], the “loss in Gibbs free energy of binding ΔG°” value ([4]; 25° C., substrate model 4 (X═O) versus model 2) is listed as 3.1 kcal/mol, the “reduction of binding affinity for the altered ligand D-Ala-D-Lac” value ([4]; versus D-Ala-D-Ala) is listed as 1000 fold and the “free energy loss of binding” value [5] is listed as “about 1.5 kcal/mole”. For the same compound, the “loss in antimicrobial activity” value [6] was 1000 fold.
For “[Ψ-[CH2NH]Tpg^4]vancomycin aglycon [Compound 3, reference compound]”, the “ligand, Ka, 6, X = NH” value (N,N′-Ac2-Lys-D-Ala-D-Ala) was 4800 M⁻¹, the “Ka(6/7)” value (N,N′-Ac2-Lys-D-Ala-D-Ala) was 0.9 and the “ligand, Ka, 7, X = O” value (N,N′-Ac2-Lys-D-Ala-D-Lac) was 5200 M⁻¹. The “VanA MIC (minimum inhibitory conc.)” value ([1]; E. faecalis BM4166, VanA VRE) was 31 µg/mL.
